From PubChem BioAssay (NCI)
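Cells were grown in 96-well plates and exposed to each compound for 48 hours at five concentrations; endpoints were interpolated linearly between bracketing concentrations, or set to the highest concentration if not reached. Here, GI50 denotes the concentration required for 50% inhibition of growth. TGI marks complete inhibition of growth.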

How the values were obtained:
Assay in all cases: NCI anticancer screen, dose series, 48 h
786-0 renal = system: 786-0 renal
A498 renal = system: A498 renal
A549 NSCLC = system: A549 NSCLC
ACHN renal = system: ACHN renal
BT-549 breast = system: BT-549 breast
CAKI-1 renal = system: CAKI-1 renal
CCRF-CEM leukemia = system: CCRF-CEM leukemia
COLO 205 colon = system: COLO 205 colon
DU-145 prostate = system: DU-145 prostate
EKVX NSCLC = system: EKVX NSCLC
HCC-2998 colon = system: HCC-2998 colon
HCT-116 colon = system: HCT-116 colon
HCT-15 colon = system: HCT-15 colon
HL-60(TB) leukemia = system: HL-60(TB) leukemia
HOP-62 NSCLC = system: HOP-62 NSCLC
HOP-92 NSCLC = system: HOP-92 NSCLC
HT29 colon = system: HT29 colon
IGROV1 ovarian = system: IGROV1 ovarian
K-562 leukemia = system: K-562 leukemia
KM12 colon = system: KM12 colon
LOX IMVI melanoma = system: LOX IMVI melanoma
M14 melanoma = system: M14 melanoma
MALME-3M melanoma = system: MALME-3M melanoma
MCF7 breast = system: MCF7 breast
MDA-MB-231 breast = system: MDA-MB-231 breast
MOLT-4 leukemia = system: MOLT-4 leukemia
NCI-H226 lung = system: NCI-H226 lung
NCI-H23 lung = system: NCI-H23 lung
NCI-H460 lung = system: NCI-H460 lung
NCI-H522 lung = system: NCI-H522 lung
NCI/ADR-RES ovarian = system: NCI/ADR-RES ovarian
OVCAR-3 ovarian = system: OVCAR-3 ovarian
OVCAR-4 ovarian = system: OVCAR-4 ovarian
OVCAR-5 ovarian = system: OVCAR-5 ovarian
OVCAR-8 ovarian = system: OVCAR-8 ovarian
PC-3 prostate = system: PC-3 prostate
RPMI-8226 leukemia = system: RPMI-8226 leukemia
RXF 393 renal = system: RXF 393 renal
SF-268 CNS = system: SF-268 CNS
SF-295 CNS = system: SF-295 CNS
SF-539 CNS = system: SF-539 CNS
SK-MEL-2 melanoma = system: SK-MEL-2 melanoma
SK-MEL-28 melanoma = system: SK-MEL-28 melanoma
SK-MEL-5 melanoma = system: SK-MEL-5 melanoma
SK-OV-3 ovarian = system: SK-OV-3 ovarian
SN12C renal = system: SN12C renal
SNB-19 CNS = system: SNB-19 CNS
SNB-75 CNS = system: SNB-75 CNS
SR leukemia = system: SR leukemia
SW-620 colon = system: SW-620 colon
T-47D breast = system: T-47D breast
TK-10 renal = system: TK-10 renal
U251 CNS = system: U251 CNS
UACC-257 melanoma = system: UACC-257 melanoma
UACC-62 melanoma = system: UACC-62 melanoma
UO-31 renal = system: UO-31 renal

CC(=O)c1nc2ccccc2n1CC(=O)c1cccc(Cl)c1
GI50 (786-0 renal): 886 nM
TGI (786-0 renal): > 41400 nM
GI50 (A498 renal): 6520 nM
TGI (A498 renal): 88600 nM
GI50 (A549 NSCLC): 2670 nM
TGI (A549 NSCLC): > 100000 nM
GI50 (ACHN renal): 1080 nM
TGI (ACHN renal): > 100000 nM
GI50 (BT-549 breast): 1120 nM
TGI (BT-549 breast): > 100000 nM
GI50 (CAKI-1 renal): 2780 nM
TGI (CAKI-1 renal): > 20100 nM
GI50 (CCRF-CEM leukemia): 1170 nM
TGI (CCRF-CEM leukemia): > 26200 nM
GI50 (COLO 205 colon): 16100 nM
TGI (COLO 205 colon): > 79100 nM
GI50 (DU-145 prostate): 647 nM
TGI (DU-145 prostate): > 31800 nM
GI50 (EKVX NSCLC): 4330 nM
TGI (EKVX NSCLC): > 100000 nM
GI50 (HCC-2998 colon): 1500 nM
GI50 (HCT-116 colon): 401 nM
TGI (HCT-116 colon): > 100000 nM
GI50 (HCT-15 colon): 246 nM
TGI (HCT-15 colon): > 100000 nM
GI50 (HL-60(TB) leukemia): 144 nM
TGI (HL-60(TB) leukemia): 610 nM
GI50 (HOP-62 NSCLC): 1690 nM
TGI (HOP-62 NSCLC): > 56500 nM
TGI (HOP-92 NSCLC): > 86200 nM
GI50 (HT29 colon): 11600 nM
TGI (HT29 colon): > 100000 nM
GI50 (IGROV1 ovarian): 543 nM
TGI (IGROV1 ovarian): > 100000 nM
GI50 (K-562 leukemia): 113 nM
TGI (K-562 leukemia): > 44100 nM
GI50 (KM12 colon): 779 nM
TGI (KM12 colon): > 43400 nM
GI50 (LOX IMVI melanoma): 590 nM
TGI (LOX IMVI melanoma): > 100000 nM
GI50 (M14 melanoma): 262 nM
TGI (M14 melanoma): > 100000 nM
GI50 (MALME-3M melanoma): 517 nM
TGI (MALME-3M melanoma): > 100000 nM
GI50 (MCF7 breast): 335 nM
TGI (MCF7 breast): > 100000 nM
GI50 (MDA-MB-231 breast): 1070 nM
TGI (MDA-MB-231 breast): > 100000 nM
GI50 (MOLT-4 leukemia): 897 nM
TGI (MOLT-4 leukemia): 26700 nM
GI50 (NCI-H226 lung): 3390 nM
TGI (NCI-H226 lung): > 44200 nM
GI50 (NCI-H23 lung): 522 nM
TGI (NCI-H23 lung): > 47500 nM
GI50 (NCI-H460 lung): 360 nM
GI50 (NCI-H522 lung): 84.6 nM
TGI (NCI-H522 lung): 719 nM
GI50 (NCI/ADR-RES ovarian): 231 nM
GI50 (OVCAR-3 ovarian): 239 nM
TGI (OVCAR-3 ovarian): > 100000 nM
GI50 (OVCAR-4 ovarian): 752 nM
TGI (OVCAR-4 ovarian): > 100000 nM
GI50 (OVCAR-5 ovarian): 3420 nM
TGI (OVCAR-5 ovarian): > 71400 nM
GI50 (OVCAR-8 ovarian): 873 nM
TGI (OVCAR-8 ovarian): > 100000 nM
GI50 (PC-3 prostate): 1120 nM
TGI (PC-3 prostate): > 100000 nM
GI50 (RPMI-8226 leukemia): 255 nM
TGI (RPMI-8226 leukemia): 14300 nM
GI50 (RXF 393 renal): 264 nM
TGI (RXF 393 renal): 880 nM
GI50 (SF-268 CNS): 1120 nM
TGI (SF-268 CNS): > 71700 nM
GI50 (SF-295 CNS): 1270 nM
TGI (SF-295 CNS): > 23200 nM
GI50 (SF-539 CNS): 330 nM
TGI (SF-539 CNS): 2250 nM
GI50 (SK-MEL-2 melanoma): 505 nM
TGI (SK-MEL-2 melanoma): 98000 nM
GI50 (SK-MEL-28 melanoma): 437 nM
TGI (SK-MEL-28 melanoma): > 54300 nM
GI50 (SK-MEL-5 melanoma): 175 nM
TGI (SK-MEL-5 melanoma): 13600 nM
GI50 (SK-OV-3 ovarian): 1270 nM
TGI (SK-OV-3 ovarian): > 100000 nM
GI50 (SN12C renal): 838 nM
TGI (SN12C renal): > 100000 nM
GI50 (SNB-19 CNS): 808 nM
TGI (SNB-19 CNS): > 100000 nM
GI50 (SNB-75 CNS): 313 nM
TGI (SNB-75 CNS): 59800 nM
GI50 (SR leukemia): 121 nM
TGI (SR leukemia): 1480 nM
GI50 (SW-620 colon): 278 nM
TGI (SW-620 colon): > 100000 nM
GI50 (T-47D breast): 881 nM
TGI (T-47D breast): > 100000 nM
GI50 (TK-10 renal): 3220 nM
TGI (TK-10 renal): 99700 nM
GI50 (U251 CNS): 534 nM
TGI (U251 CNS): > 100000 nM
GI50 (UACC-257 melanoma): 1690 nM
TGI (UACC-257 melanoma): > 100000 nM
GI50 (UACC-62 melanoma): 416 nM
TGI (UACC-62 melanoma): 7290 nM
GI50 (UO-31 renal): 1270 nM
TGI (UO-31 renal): > 100000 nM
